The source of these data is BindingDB's records for doi:10.7270/Q2TX3CTT (Broad Institute, 2010).

Bounds are passed on as bounds.

As a reminder, the EC50 is the concentration giving half of the maximal effect. Higher therefore signals weaker potency.

Glycogen synthase kinase-3 beta, sequence (P49841 whole entry): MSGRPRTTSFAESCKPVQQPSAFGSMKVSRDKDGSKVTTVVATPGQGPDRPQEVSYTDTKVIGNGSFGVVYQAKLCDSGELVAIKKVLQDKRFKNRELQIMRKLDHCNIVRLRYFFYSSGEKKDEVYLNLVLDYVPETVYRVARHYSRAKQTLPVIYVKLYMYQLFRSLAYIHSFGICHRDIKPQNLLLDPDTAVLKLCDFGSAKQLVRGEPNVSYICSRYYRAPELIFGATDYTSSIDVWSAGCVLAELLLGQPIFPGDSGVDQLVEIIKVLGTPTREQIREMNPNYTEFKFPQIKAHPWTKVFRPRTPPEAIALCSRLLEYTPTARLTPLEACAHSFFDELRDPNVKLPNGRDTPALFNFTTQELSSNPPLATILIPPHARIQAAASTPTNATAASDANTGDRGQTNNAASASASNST

This experiment addresses Glycogen synthase kinase-3 beta (Homo sapiens, UniProt P49841). Kind of experiment: GSK3beta kinase inhibitor potency, dose response, biochemical, luminescence, cell-free homogeneous, retest (AID 434954).
For `COc1ccc(/C=C(/NC(=O)c2ccccc2)C(=O)NN=Cc2ccncc2)c(OC)c1` [N-[(E)-1-(2,4-dimethoxyphenyl)-3-oxo-3-[2-(pyridin-4-ylmethylidene)hydrazinyl]prop-1-en-2-yl]benzamide], the EC50 was more than 300 µM. Regarding `C=CCNC(=O)c1ccc(OC)cc1` [4-methoxy-N-prop-2-enylbenzamide], the EC50 is more than 300 µM. With `COc1ccc(Nc2nc(N)c([N+](=O)[O-])c(NC3CCCCC3)n2)cc1`, the EC50 was more than 300 µM.

Turning to `Cc1ccc(S(=O)(=O)N2CCN(CC(=O)NN=Cc3ccco3)CC2)cc1` [MLS000590873], the EC50 was more than 300 µM. For `O=C(NCC(c1ccco1)N1CCc2ccccc21)c1c(F)cccc1F` (stereo unspecified) [N-[2-(2,3-dihydroindol-1-yl)-2-(furan-2-yl)ethyl]-2,6-bis(fluoranyl)benzamide] the value was more than 300 µM; for `O=C(NN=Cc1ccco1)c1ccn[nH]1` [SMR000279368], more than 300 µM; for `Cc1onc(-c2ccccc2)c1C(=O)n1cccn1`, more than 300 µM. For `Cc1ccc(C2c3c(n[nH]c3C)N=C3CC(C)(C)CC(=O)C32)cc1` (stereo unspecified) [3,7,7-trimethyl-4-(4-methylphenyl)-2,4,6,8-tetrahydro-1H-pyrazolo[3,4-b]quinolin-5-one], the EC50 amounted to 9.26 µM. With `CN1CCN(CCCNC(=O)Nc2ccc([N+](=O)[O-])cc2)CC1` [N-[3-(4-methylpiperazin-1-yl)propyl]-N'-(4-nitrophenyl)urea] the figure was more than 300 µM; with `CC1CN(C(=O)CCc2cc(C(C)(C)C)c(O)c(C(C)(C)C)c2)CC(C)O1` (stereo unspecified) [3-(3,5-ditert-butyl-4-hydroxyphenyl)-1-(2,6-dimethyl-4-morpholinyl)-1-propanone], more than 300 µM. With `CN(c1ncnc(N)c1[N+](=O)[O-])C1CCCCC1` the figure was 2.57 µM; with `CCOC(=O)c1c(C)[nH]c(C)c1S(=O)(=O)N(C)CC(=O)Nc1ccccc1` [SMR000630545], more than 300 µM. With `N#Cc1c(Cl)nc(-c2ccncc2)nc1-c1ccccc1` [SMR000549420] the figure was 15.2 µM; with `Nc1nc(NCC2CCCO2)nc(Nc2ccc(F)cc2)c1[N+](=O)[O-]` (stereo unspecified) [SMR000219528], 5.82 µM. `Cc1cccc(/C=C2/Sc3ccc(C(=O)NCCCN4CCOCC4)cc3NC2=O)c1` [(2E)-2-[(3-methylphenyl)methylidene]-N-(3-morpholin-4-ylpropyl)-3-oxidanylidene-4H-1,4-benzothiazine-6-carboxamide] showed an EC50 of more than 300 µM. For `COc1ccc(CNCCC(c2ccc(F)cc2)c2ccc(OC)cc2)cc1` (stereo unspecified) [3-(4-fluorophenyl)-3-(4-methoxyphenyl)-N-[(4-methoxyphenyl)methyl]propan-1-amine], the EC50 is more than 300 µM. As to `CCCc1cc(C(=O)Nc2cc(Br)ccc2O)no1` [MLS000116375], the EC50 was more than 300 µM. `COc1ccc(C(=O)OCCc2ccc(O)cc2)cc1`: the EC50 was more than 300 µM. For `CC(C(=O)NC1CCCCCC1)n1cc([N+](=O)[O-])cn1` (stereo unspecified) [N-cycloheptyl-2-(4-nitro-1-pyrazolyl)propanamide], the EC50 was more than 300 µM. As to `O=C(c1cccnc1)C1CCCN(Cc2nc(Cc3ccccc3)no2)C1` (stereo unspecified) [[1-[[3-(phenylmethyl)-1,2,4-oxadiazol-5-yl]methyl]-3-piperidinyl]-(3-pyridinyl)methanone], the EC50 was more than 300 µM. For `C=CCN1C(=O)NC(=O)/C(=C/c2ccc(OCC(=O)Nc3ccc(C)cc3)cc2)C1=O` [SMR000673044] the value was more than 300 µM.

For the molecule `O=C(Cn1cc[n+](CC(=O)c2ccc(Cl)cc2Cl)c1)c1ccc(Cl)cc1Cl` [1,3-Bis-[2-(2,4-dichloro-phenyl)-2-oxo-ethyl]-3H-imidazol-1-ium], the EC50 is more than 300 µM. As to `O=C(COc1ccccc1[N+](=O)[O-])NN=Cc1cccs1` [SMR000185881], the EC50 is more than 300 µM.

The molecule `CCC(O)CNc1nc(SC)nc2sc3c(c12)CCN(C)C3` (stereo unspecified) came in with an EC50 of 1.75 µM. Molecule `COc1cccc(CSc2nnc(-c3ccc(F)cc3)o2)c1` [MLS000077100] yielded an EC50 of 22.5 µM. With `COc1ccc2c(c1)-c1c(ssc1=S)C(C)(C)N2C(=O)CSC1=NCCS1` [2-(4,5-dihydrothiazol-2-ylthio)-1-(8-methoxy-4,4-dimethyl-1-sulfanylidene-5-dithiolo[3,4-c]quinolinyl)ethanone] the figure was more than 300 µM. For `CC(=O)c1ccc(NC(=O)NNS(=O)(=O)c2ccc([N+](=O)[O-])cc2)cc1` the value was more than 300 µM; for `COc1ccc2occ(C(C)=O)c2c1` [1-(5-methoxy-3-benzofuranyl)ethanone], more than 300 µM. With `Cc1cccc(-n2c(=O)c3c4c(sc3n3c(=S)[nH]nc23)CCC4)c1` [1-mercapto-4-(3-methylphenyl)-7,8-dihydro-6H-cyclopenta[4,5]thieno[3,2-e][1,2,4]triazolo[4,3-a]pyrimidin-5(4H)-one] the figure was 48.9 µM. As to `CCCCCC(=O)N1CCN(S(=O)(=O)c2ccc3c(c2)OCCCO3)CC1` [MLS001161784], the EC50 is more than 300 µM. For `CN1CCc2c(sc(NC(=O)Cc3ccc(F)cc3)c2C(N)=O)C1` [SMR000641824] the value was more than 300 µM; for `COc1ccc2occ(C(=O)c3ccc(N=C(C)N(C)C)cc3)c2c1` [SMR000104711], 21.6 µM. `CC(C)(C)C(=O)c1sc(Nc2ccccc2)nc1N` [1-(4-amino-2-anilino-1,3-thiazol-5-yl)-2,2-dimethyl-1-propanone] returned an EC50 of 1 µM. For `NC(=O)c1c(NC(=O)CN2CCCC2)sc2c1CCCC2` [2-(2-Pyrrolidin-1-yl-acetylamino)-4,5,6,7-tetrahydro-benzo[b]thiophene-3-carboxylic acid amide] the value was more than 300 µM; for `Cc1ccc(CNc2nc(N)c([N+](=O)[O-])c(Nc3ccc(F)cc3)n2)cc1` [N4-(4-fluorophenyl)-N2-[(4-methylphenyl)methyl]-5-nitro-pyrimidine-2,4,6-triamine], more than 300 µM. With `O=C(O)c1ccc2c3n(nc2c1)-c1ccc(Cl)cc1CO3` [SMR000673552] the figure was 55.5 µM; with `Cc1c(CCOC(=O)CC23CC4CC(CC(C4)C2)C3)sc[n+]1CC(=O)c1ccc(Br)cc1` [SMR000155561], more than 300 µM; with `CC(=O)Nc1ccccc1C(=O)OCc1ccc(C(=O)c2ccccc2)cc1`, more than 300 µM. With `O=C(O)c1cc(-c2ccc(C=NNC(=S)Nc3ccccc3)o2)ccc1Cl` [5-[5-[[[anilino(sulfanylidene)methyl]hydrazinylidene]methyl]-2-furanyl]-2-chlorobenzoic acid] the figure was more than 300 µM; with `N#Cc1cccc(-c2nnc(SCc3ccccc3C#N)o2)c1` [SMR000006352], more than 300 µM; with `O=C(Oc1ccc(Cl)cc1)N1CCCCC1` [(4-chlorophenyl) piperidine-1-carboxylate], more than 300 µM. Consider `Cc1c(NC(=O)C(C)OC(=O)COc2ccccc2)c(=O)n(-c2ccccc2)n1C` (stereo unspecified) [[1-[(1,5-dimethyl-3-oxidanylidene-2-phenyl-pyrazol-4-yl)amino]-1-oxidanylidene-propan-2-yl] 2-phenoxyethanoate], for which the EC50 is more than 300 µM. For `CCc1c(C(=O)Nc2ccccc2C(N)=O)csc1C` [SMR000679541] the value was more than 300 µM; for `CCOc1cc(C2c3c(n[nH]c3C)N=C3CC(C)(C)CC(=O)C32)ccc1O` (stereo unspecified) [MLS000736418], 3.32 µM. As to `O=C(CS(=O)(=O)c1ccccc1)Nc1ncc([N+](=O)[O-])s1` [2-(benzenesulfonyl)-N-(5-nitro-1,3-thiazol-2-yl)acetamide], the EC50 was more than 300 µM. With `O=C(NN=Cc1ccc(-c2ccc(Cl)c(C(=O)O)c2)o1)c1cc2c(ccc3ccccc32)o1` [5-[5-[(benzo[e][1]benzofuran-2-carbonylhydrazinylidene)methyl]furan-2-yl]-2-chlorobenzoic acid] the figure was more than 300 µM; with `CCOc1ccc2c(c1)C(=O)C(=O)N2CC1COc2ccccc2O1` (stereo unspecified) [1-(2,3-dihydro-1,4-benzodioxin-3-ylmethyl)-5-ethoxy-indole-2,3-dione], more than 300 µM; with `CCN1CCN(Cc2c(O)ccc3c2O/C(=C\C=C\c2ccccc2)C3=O)CC1` [SMR000221319], more than 300 µM. For `Nc1nc(NCc2ccccc2)nc(NCCO)c1[N+](=O)[O-]` [MLS000332798] the value was 71.9 µM; for `O=C(CN1CCN(S(=O)(=O)c2ccccc2)CC1)Nc1ccc([N+](=O)[O-])cc1` [2-[4-(benzenesulfonyl)-1-piperazinyl]-N-(4-nitrophenyl)acetamide], more than 300 µM. With `COc1ccc(C(=O)NC(=S)NC2CCCCC2)cc1`, the EC50 is more than 300 µM. For `c1ccc(CN=Nc2nccc(-c3cccnc3)n2)cc1` the value was 16.9 µM. For `CCn1c(SCC(=O)NNC(=O)c2ccc(C)cc2)nnc1C1CC1` [N'-[2-[(5-cyclopropyl-4-ethyl-1,2,4-triazol-3-yl)sulfanyl]acetyl]-4-methylbenzohydrazide] the value was more than 300 µM; for `O=C(Nc1ccccc1)Nc1ncc([N+](=O)[O-])s1` [MLS001018461], 27 µM; for `Cn1ncc(Br)c1C(=O)Nc1cccc(C(F)(F)F)c1` [MLS000711234], more than 300 µM.

On to `COc1cccc2cc(C(C)=O)c(=O)oc12` [3-acetyl-8-methoxy-2H-chromen-2-one], for which the EC50 was more than 300 µM. With `O=C(NCCCN1CCCCC1)c1ccc2c(c1)NC(=O)c1ccccc1S2` [6-oxidanylidene-N-(3-piperidin-1-ylpropyl)-5H-benzo[b][1,4]benzothiazepine-3-carboxamide] the figure was more than 300 µM; with `CCN(CC)Cc1c(O)ccc2occ(C(=O)c3ccc(OC)cc3)c12` [[4-(diethylaminomethyl)-5-oxidanyl-1-benzofuran-3-yl]-(4-methoxyphenyl)methanone], more than 300 µM. Turning to `CS(=O)(=O)Nc1cccc(-c2cn3c(n2)SCC3)c1` [MLS001167062], the EC50 was more than 300 µM. For `O=C1NC(=O)N(Cc2ccc(F)cc2)C(=O)C1=CNCCN1CCCCC1` [MLS000040945] the value was more than 300 µM.

Take `COc1ccc2oc(C)c(C(=O)c3ccc(C)cc3)c2c1` [(5-methoxy-2-methyl-3-benzofuranyl)-(4-methylphenyl)methanone]: the EC50 is more than 300 µM.
